Measurements: US5136076A, “Process for the preparation of amino acid-derived enatiomeric compounds” (Societe Civile Bioprojet, priority 1987, dated 1992)

Key:
[1] = target: T1, ACE (angiotensin convertase) (Mus musculus, UniProt P09470); assay: ACE inhibition in vivo, mouse striatum (Table 1 (d)); conditions: mouse, iv, 0.5 h, mouse striatum, 30 mn after i.v. administration; read-out: ACE In vivo(d) (DE50, mg/kg)
T1 construct: Activities measured on mouse striatum membranes in vitro or 30; from tissue; host or cells: mouse striatum (membranes)
T1 sequence (P09470 35-1312): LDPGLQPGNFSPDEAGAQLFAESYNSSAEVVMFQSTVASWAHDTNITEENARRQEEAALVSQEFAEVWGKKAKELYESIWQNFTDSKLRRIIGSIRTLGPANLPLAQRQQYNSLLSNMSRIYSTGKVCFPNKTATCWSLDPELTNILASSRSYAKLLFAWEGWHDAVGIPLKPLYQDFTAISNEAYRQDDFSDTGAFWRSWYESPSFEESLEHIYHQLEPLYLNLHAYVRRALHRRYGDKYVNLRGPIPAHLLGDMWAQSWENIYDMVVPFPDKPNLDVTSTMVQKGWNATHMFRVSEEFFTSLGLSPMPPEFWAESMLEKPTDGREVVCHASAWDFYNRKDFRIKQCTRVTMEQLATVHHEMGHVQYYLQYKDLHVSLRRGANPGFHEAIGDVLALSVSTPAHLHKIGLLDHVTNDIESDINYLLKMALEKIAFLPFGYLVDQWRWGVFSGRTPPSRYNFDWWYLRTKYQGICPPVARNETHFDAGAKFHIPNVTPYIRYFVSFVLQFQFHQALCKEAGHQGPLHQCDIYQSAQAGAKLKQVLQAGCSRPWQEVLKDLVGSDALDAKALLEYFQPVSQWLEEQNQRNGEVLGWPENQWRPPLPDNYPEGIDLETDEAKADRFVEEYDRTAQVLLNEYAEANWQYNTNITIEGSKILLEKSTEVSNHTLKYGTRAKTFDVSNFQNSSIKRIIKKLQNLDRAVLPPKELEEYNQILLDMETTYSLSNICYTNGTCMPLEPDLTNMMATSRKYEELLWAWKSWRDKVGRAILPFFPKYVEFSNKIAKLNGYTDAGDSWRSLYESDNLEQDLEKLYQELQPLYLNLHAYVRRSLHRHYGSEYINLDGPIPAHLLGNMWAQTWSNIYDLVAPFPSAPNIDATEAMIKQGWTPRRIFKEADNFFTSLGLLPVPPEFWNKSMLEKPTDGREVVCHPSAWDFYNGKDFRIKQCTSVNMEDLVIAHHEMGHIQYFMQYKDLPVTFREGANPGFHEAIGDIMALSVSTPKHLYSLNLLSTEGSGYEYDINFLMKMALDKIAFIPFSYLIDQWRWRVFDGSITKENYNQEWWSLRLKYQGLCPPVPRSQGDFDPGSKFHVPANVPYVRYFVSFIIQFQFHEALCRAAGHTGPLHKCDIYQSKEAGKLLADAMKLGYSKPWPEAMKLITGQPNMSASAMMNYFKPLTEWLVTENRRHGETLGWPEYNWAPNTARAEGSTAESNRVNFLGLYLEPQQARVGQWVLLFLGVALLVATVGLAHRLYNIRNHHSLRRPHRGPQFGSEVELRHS
Source text: (§1) Dosage of `enkephalinase` activity and angiotensin convertase (ACE) activity with determination of the effect of inhibitors both in vitro and on mouses in vivo: inhibition of the same enzymes and protection of natriuretic auricular factor.
(§2) ENKEPHALINASE AND ACE INHIBITING ACTIVITIES IN IN VITRO AND IN VIVO STRIATUM
(§3) (c) and (d)Activities measured on mouse striatum membranes in vitro or 30
(§4) mn after i.v. administration according to Yang and Neff, J. Neurochem, […]

enkephalinase [2] = target: T2, enkephalinase (Mus musculus, UniProt Q61391); assay: Enkephalinase inhibition in vitro on striatum membranes (Table 1 (a)); format: biochemical
T2 construct: Activity measured on striatum membranes according to Llorens et al., J; from tissue; host or cells: striatum membranes
T2 sequence (Q61391 1-750): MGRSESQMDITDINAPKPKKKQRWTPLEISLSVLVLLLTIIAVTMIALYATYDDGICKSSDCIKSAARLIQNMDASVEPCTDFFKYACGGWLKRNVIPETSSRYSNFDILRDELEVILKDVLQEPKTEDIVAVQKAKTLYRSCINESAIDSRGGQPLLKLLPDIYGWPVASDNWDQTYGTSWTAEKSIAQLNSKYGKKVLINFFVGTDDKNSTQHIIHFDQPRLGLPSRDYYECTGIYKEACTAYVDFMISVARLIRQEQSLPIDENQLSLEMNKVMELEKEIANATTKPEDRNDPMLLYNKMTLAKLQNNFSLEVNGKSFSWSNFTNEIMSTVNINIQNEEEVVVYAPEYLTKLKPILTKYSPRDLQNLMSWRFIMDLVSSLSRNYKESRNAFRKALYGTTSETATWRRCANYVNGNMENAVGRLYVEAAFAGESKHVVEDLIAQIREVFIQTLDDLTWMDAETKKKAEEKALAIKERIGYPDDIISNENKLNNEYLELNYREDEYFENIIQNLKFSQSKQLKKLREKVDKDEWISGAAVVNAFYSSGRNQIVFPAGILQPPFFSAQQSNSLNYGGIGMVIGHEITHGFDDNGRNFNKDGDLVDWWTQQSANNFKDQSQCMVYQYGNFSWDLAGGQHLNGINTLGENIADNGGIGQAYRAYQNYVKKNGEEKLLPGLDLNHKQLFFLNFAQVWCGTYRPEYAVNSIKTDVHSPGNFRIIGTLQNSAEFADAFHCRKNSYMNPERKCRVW
Source text: as §1, §2
(a)Activity measured on striatum membranes according to Llorens et al., J

[3] = target: T1, ACE (angiotensin convertase); assay: ACE inhibition in vitro on mouse striatum membranes (Table 1 (c)); format: biochemical
Source text: as §1, §2, §3, §4

enkephalinase [4] = assay: Enkephalinase inhibition in vivo in mouse striatum (Table 1 (b)); conditions: 30 mn after i.v. administration
Source text: as §1, §2
(b)Activity measured in mouse striatum 30 mn after i.v. administration
according to LlorensCortes et al., Eur. J. Pharmacol., 1985, 119, 183.

[5] = intracerebral, separate enantiomers of thiorphan; cited from earlier work
[6] = tested on: angiotensin conversion enzyme (ACE); conditions: separate enantiomers of thiorphan; cited from earlier work

Row | Structure (SMILES) | ED50 [1] | IC50 (enkephalinase [2]) | IC50 [3] | Enkephalinase In vivo(b) (DE50, mg/kg) (enkephalinase [4]) | analgesic activity [5] | ACE's inhibiting activity [6]
1 | COC(=O)[C@H](C)NC(=O)[C@H](CSC(C)=O)Cc1ccccc1 [(5), (R) N-/2-acetylthiomethyl-1-oxo-3-phenyl propyl/-(S)-alanine methyl ester] | > 20 mg/kg | 3 nM | 2000 nM | 0.9 mg/kg | – | –
2 | COC(=O)[C@H](C)NC(=O)[C@@H](CSC(C)=O)Cc1ccccc1 [(6), (S) N-/2-acetylthiomethyl-1-oxo-3-phenylpropyl/-(S)-alanine methyl ester] | 4 mg/kg | 1.2 nM | 12 nM | 0.3 mg/kg | – | –
3 | O=C(O)CNC(=O)[C@H](CS)Cc1ccccc1 [(R) isomer] | – | – | – | – | principally to the (R) isomer | –
4 | O=C(O)CNC(=O)[C@@H](CS)Cc1ccccc1 [(S) isomer] | – | – | – | – | – | almost exclusively attributable to the (S) isomer
